The values below come from patent US8759537B2, “3H-imidazo [4, 5-C] pyridine-6-carboxamides as anti-inflammatory agents” (Boehringer Ingelheim International GmbH, priority 2010, dated 2014).

Assay [1] concerns the target T1, mPGES-1 (Homo sapiens (Human), UniProt O14684). Kind of assay: mPGES-1 enzyme assay (HTRF detection of PGE2). Format: biochemical. The procedure: Microsomes from Rosetta E. coli bacteria expressing recombinant human mPGES-1 can be derived as described below:
Inoculate 5 ml LB with Ampicilin (50 μg/ml) and Chloramphenicol (34 μg/ml) with bacteria from freeze culture. Incubate 8 h at 37° C. with 200 rpm. Thereafter, inoculate 500-1000 ml LB containing Amp and Chloro with the 5 ml on culture and grow to OD640 of 0.8-1.0. Chill the culture to +4° C. before induction. Induce the culture with IPTG at a final concentration of 400 μM. Express the protein at room temp 18-23° C. with 200 rpm shaking over night.
The following steps can be performed on the following day: • 1. Spin down the cells in 250 ml centrifuge flasks for 15 min at 7000 rpm (Beckmann Coulte Avanti J-E centrifuge) • 2. Dissolve the pellet from 250 ml culture in 12.5 ml homogenization buffer • 3. (15 mM Tris-HCL pH8, 1 mM EDTA pH8, […], 2.5 mM GSH, 1 Tablet Protease inhibitor per 50 ml buffer) • 4. […] Add 2.5 ml MgCl2 (100 mM) and DNase 12.5 μl (0.8 mg/ml) and incubate on ice for 30 min • 6. Spin down the bacteria debris and save the supernatant, 7000 rpm for 15 min • 7. Isolate the protein containing membranes in the supernatant by ultracentrifugation 120000×g for 2 hour at 4° C. (Sorvall T880 rotor). • 8. Discard the supernatant and dissolve the pellet in 20 mM Potassium phosphate buffer pH7.4 (KH2PO4 and K2HPO4) buffer by sonication (5×10 s, 30% of a 50 W sonifier) and aliquot the enzyme and store aliquots at −80° C.
Before each experiment is performed an aliquot of the enzyme is thawed and it can then be dissolved in 0.1 M Potassium phosphate buffer pH7.4 (KH2PO4 and K2HPO4) buffer containing 2.5 mM GSH.
The aim of this assay is to determine the affinity of a test compound for the mPGES-1 enzyme.
47 μl of recombinant human mPGES-1 (˜0.5 μg protein/well) containing microsomal suspension in a buffer containing GSH, (2.5 mmol/L L-Glutathione reduced, dissolved in 0.1 mol/L Phosphat Buffer pH 7.4) is dispensed in a 384-well plate and thereafter 1 μl of the test compound(s) is/are added and incubated for 25 minutes at room temperature. The enzyme reaction is started by the addition of 2 ul PGH2 (final conc. 2 μM) dissolved in water-free Diglyme. After 60 seconds the reaction is terminated by addition of a stop solution containing FeCl2 (10 μL 0.074 mol/l FeCl2). The samples are diluted between 1:25 in PBS (Phosphate Buffered Saline). 10 μl of the diluted samples are transferred to 384-well low volume plate. In order to quantify the amount of PGE2 that has been formed, a homogenous time resolved fluorescent (HTRF) detecting of PGE2 has been performed using a commercially available kit from Cisbio according to the manufactures recommendation. […] Briefly, the diluted samples are mixed with 5 μl PGE2-d2 conjungate and 5 μl anti-PGE2 cryptate conjungate. After an incubation period of the plates over night, the fluorescence is measured by the use of an appropriate microplate reader.
The quantification plate contains also wells with different concentrations of PGE2 as calibration curve for the calculation of the PGE2 concentrations from the HTRF ratio values.
From all mPGES enzyme assay the background is subtracted and the IC50 is calculated over a nonlinear regression with conventional software.

Assay [2] concerns the target T1, mPGES-1. Put plainly: A549 cell-based assay (PGE2 formation, IL-1β stimulated, 50% human serum). The conditions noted are these: A549 cells. The gist of the method: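 Human A549 cells (7000 cells/well) in F-12 medium with 50% human serum, with IL-1β stimulation. IC50 from 6-8 point titrations.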
Where [3] appears, read: recombinant human mPGES-1 microsomes, PGH2 2 μM, read-out: mPGES-1 inhibitory effect in the enzyme assay, IC50.
[4] abbreviates: IL-1β 5 ng/ml, read-out: mPGES-1 inhibitory effect in the cell assay, IC50.
[5] abbreviates: Table C comparison of selected benzimidazoles, read-out: Enzym IC50.
The mark [6] stands for this setting: Table C comparison of selected benzimidazoles, read-out: Cell IC50.

T1 sequence (O14684 whole entry): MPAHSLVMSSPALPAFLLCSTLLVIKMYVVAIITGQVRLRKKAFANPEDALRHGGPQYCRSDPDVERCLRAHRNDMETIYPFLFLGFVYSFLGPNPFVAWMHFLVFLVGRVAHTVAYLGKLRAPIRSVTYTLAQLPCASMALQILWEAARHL

As usually defined, the IC50 is the midpoint of a concentration-inhibition curve. Turning to `Cn1c(Nc2c(Cl)ccc(CNC(=O)C(C)(C)C)c2Cl)nc2cc(C(=O)Nc3cccc(Cl)c3)c(OCC(F)F)cc21` [Example 30], the IC50 at mPGES-1 [1] (setting [3]) is 4 nM; on mPGES-1 [2] (setting [4]), less than 1 nM.

As for `Cn1c(Nc2c(Cl)ccc(CNC(=O)C(C)(C)C)c2Cl)nc2cc(C(=O)Nc3nc4ccc(Cl)cc4s3)c(OCC(F)F)cc21` [Example 34], the IC50 came to 4 nM on mPGES-1 [1] (setting [3]) and 1 nM at mPGES-1 [2] (setting [4]).

For `Cn1c(Nc2c(Cl)ccc(CNC(=O)C(C)(C)C)c2Cl)nc2cc(C(=O)Nc3ccc(Cl)c(F)c3)c(OCC(F)F)cc21` [Example 45], the IC50 is 4 nM at mPGES-1 [1] (setting [3]) and less than 1 nM on mPGES-1 [2] (setting [4]).

`CC(C)(C)C(=O)NCc1ccc(Cl)c(Nc2nc3cc(C(=O)N[C@H]4CC[C@H](C(F)(F)F)CC4)c(F)cc3[nH]2)c1Cl` [Example 12, N-(trans-4-Trifluoromethyl-cyclohex-1-yl)-2-{2,6-dichloro-3-[(2,2-dimethyl-propionylamino)-methyl]-phenylamino}-6-fluoro-1H-benzimidazole-5-carboxylic acid amide]: the IC50 amounted to 4 nM on mPGES-1 [1] (setting [3]) and 7 nM at mPGES-1 [2] (setting [4]).

Consider `Cn1c(Nc2cc(CNC(=O)C(C)(C)C)ccc2Cl)nc2cc(C(=O)N[C@H]3CC[C@H](C(F)(F)F)CC3)c(OCC(F)F)cc21` [[drawing 47] of PCT/EP2010/052799, reference compound], for which the IC50 at mPGES-1 [1] (setting [5]) stood at 3 nM; on mPGES-1 [2] (setting [6]), 17 nM.

For the compound `Cn1c(Nc2c(Cl)ccc(CNC(=O)N3CCC(F)(F)C3)c2Cl)nc2cc(C(=O)N[C@H]3CC[C@H](C(F)(F)F)CC3)c(OCC(F)F)cc21` [Example 81], the figures for the IC50 at mPGES-1 [1] (setting [3]) and on mPGES-1 [2] (setting [4]) were 3 nM and 50 nM, respectively.

As for `Cn1c(Nc2c(Cl)ccc(CNC(=O)C(C)(C)C)c2F)nc2cc(C(=O)Nc3ccc(Br)cc3)c(OCC(F)F)cc21` [Example 8], the IC50 on mPGES-1 [1] (setting [3]) is 3 nM; at mPGES-1 [2] (setting [4]), less than 1 nM.

`Cn1c(Nc2c(Cl)ccc(CNC(=O)C(C)(C)C)c2Cl)nc2cc(C(=O)Nc3cccc(C(F)(F)F)n3)c(OCC(F)F)cc21` [Example 66]: the figures for the IC50 on mPGES-1 [1] (setting [3]) and on mPGES-1 [2] (setting [4]) were 4 nM and less than 1 nM, respectively.

In the case of `Cn1c(Nc2c(F)ccc(CNC(=O)C(C)(C)C)c2F)nc2cc(C(=O)NCC(F)(F)F)c(OCC(F)F)cc21` [Example 27], the half-maximal inhibitory concentration (IC50) was 4 nM at mPGES-1 [1] (setting [3]) and 124 nM at mPGES-1 [2] (setting [4]).

As for `Cc1ccc(Cl)cc1NC(=O)c1cc2nc(Nc3c(Cl)ccc(CNC(=O)C(C)(C)C)c3Cl)n(C)c2cc1OCC(F)F` [Example 54], the half-inhibitory concentration (IC50) was 3 nM on mPGES-1 [1] (setting [3]) and less than 1 nM at mPGES-1 [2] (setting [4]).

Turning to `Cn1c(Nc2c(Cl)ccc(CNC(=O)C(C)(C)C)c2Cl)nc2cc(C(=O)Nc3cc(C(F)(F)F)ccn3)c(OCC(F)F)cc21` [Example 67], the IC50 was found to be 2 nM on mPGES-1 [1] (setting [3]) and 1 nM on mPGES-1 [2] (setting [4]).

Turning to `CC(C)(C)C(=O)NCc1ccc(Cl)c(Nc2nc3cc(C(=O)N[C@H]4CC[C@H](C(F)(F)F)CC4)c(OCC(F)F)cc3[nH]2)c1Cl` [Example 2, N-(trans-4-Trifluoromethyl-cyclohex-1-yl)-2-{2,6-dichloro-3-[(2,2-dimethyl-propionylamino)-methyl]-phenylamino}-6-(2,2-difluoro-ethoxy)-1H-benzimidazole-5-carboxylic acid amide], the IC50 turned out to be 2 nM at mPGES-1 [1] (setting [3]) and 3 nM at mPGES-1 [2] (setting [4]).

As to `Cn1c(Nc2c(Cl)ccc(CNC(=O)C(C)(C)C)c2Cl)nc2cc(C(=O)NCC3CC3)c(OCC(F)F)cc21` [drawing 48], the values for the 50% inhibitory concentration (IC50) at mPGES-1 [1] (setting [5]) and on mPGES-1 [2] (setting [6]) were 4 nM and 1 nM, respectively.

As to `Cn1c(Nc2c(Cl)ccc(CNC(=O)C(C)(C)C)c2Cl)nc2cc(C(=O)NCCC3CC3)c(OCC(F)F)cc21` [Example 51], the IC50 at mPGES-1 [1] (setting [3]) was 3 nM; at mPGES-1 [2] (setting [4]), less than 1 nM.

Consider `Cn1c(Nc2c(Cl)ccc(CNC(=O)C(C)(C)C)c2Cl)nc2cc(C(=O)Nc3cc(Cl)ccc3Cl)c(F)cc21` [Example 22], for which the results for the IC50 at mPGES-1 [1] (setting [3]) and on mPGES-1 [2] (setting [4]) were 2 nM and 1 nM, respectively.

For the compound `CC(C)(C)C(=O)NCc1ccc(Cl)c(Nc2nc3cc(C(=O)Nc4ccc(Br)cc4)c(OCC(F)F)cc3[nH]2)c1Cl` [Example 4, N-(4-Bromo-phenyl)-2-{2,6-dichloro-3-[(2,2-dimethyl-propionylamino)-methyl]-phenylamino}-6-(2,2-difluoro-ethoxy)-1H-benzimidazole-5-carboxylic acid amide], the concentration for half-maximal inhibition (IC50) is 4 nM at mPGES-1 [1] (setting [3]) and 2 nM on mPGES-1 [2] (setting [4]).

As for `CC1CCCN1C(=O)NCc1ccc(Cl)c(Nc2nc3cc(C(=O)N[C@H]4CC[C@H](C(F)(F)F)CC4)c(OCC(F)F)cc3n2C)c1Cl` (some centres unmarked) [Example 82], the IC50 on mPGES-1 [1] (setting [3]) was 1 nM; on mPGES-1 [2] (setting [4]), 43 nM.

`Cn1c(Nc2c(Cl)ccc(CNC(=O)C(C)(C)C)c2Cl)nc2cc(C(=O)Nc3cccc(Cl)c3F)c(OCC(F)F)cc21` [Example 73]: the IC50 at mPGES-1 [1] (setting [3]) was 2 nM; at mPGES-1 [2] (setting [4]) it was 1 nM.

As to `Cn1c(Nc2c(Cl)ccc(CNC(=O)C(C)(C)C)c2F)nc2cc(C(=O)Nc3ccc(F)c(Cl)c3)c(OCC(F)F)cc21` [Example 75, N-(3-Chloro-4-fluoro-phenyl)-2-{6-chloro-2-fluoro-3-[(2,2-dimethyl-propionylamino)-methyl]-phenylamino}-6-(2,2-difluoroethoxy)-1-methyl-1H-benzimidazole-5-carboxylic acid amide], the IC50 at mPGES-1 [1] (setting [3]) was 2 nM; on mPGES-1 [2] (setting [4]) it was less than 1 nM.

As for `Cn1c(Nc2c(F)ccc(CNC(=O)C(C)(C)C)c2F)nc2cc(C(=O)Nc3cccc(F)c3)c(OCC(F)F)cc21` [Example 72], the half-inhibitory concentration (IC50) turned out to be 1 nM on mPGES-1 [1] (setting [3]) and 9 nM at mPGES-1 [2] (setting [4]).

With `Cn1c(Nc2c(Cl)ccc(CNC(=O)C(C)(C)C)c2Cl)nc2cc(C(=O)Nc3cccc(F)c3)c(OCC(F)F)cc21` [Example 31], the IC50 amounted to 3 nM on mPGES-1 [1] (setting [3]) and 1 nM on mPGES-1 [2] (setting [4]).

Turning to `Cn1c(Nc2c(F)ccc(CNC(=O)C(C)(C)C)c2F)nc2cc(C(=O)Nc3cc(F)cc(Cl)c3)c(OCC(F)F)cc21` [Example 69], the IC50 on mPGES-1 [1] (setting [3]) was determined as 2 nM; at mPGES-1 [2] (setting [4]), 3 nM.

`Cn1c(Nc2c(Cl)ccc(CNC(=O)C(C)(C)C)c2Cl)nc2cc(C(=O)Nc3ccc(Br)cc3)c(OCC(F)F)cc21` [Example 5, N-(4-Bromo-phenyl)-2-{2,6-dichloro-3-[(2,2-dimethyl-propionylamino)-methyl]-phenylamino}-6-(2,2-difluoro-ethoxy)-1-methyl-1H-benzimidazole-5-carboxylic acid amide]: the IC50 on mPGES-1 [1] (setting [3]) was 2 nM; on mPGES-1 [2] (setting [4]), less than 1 nM.

Consider `Cn1c(Nc2c(Cl)ccc(CNC(=O)OC(C)(C)C)c2Cl)nc2cc(C(=O)NCC(F)(F)F)c(OCC(F)F)cc21` [Example 16], for which the IC50 at mPGES-1 [1] (setting [3]) came to 5 nM; at mPGES-1 [2] (setting [4]), 106 nM.

For the compound `CCNC(=O)c1cc2nc(Nc3c(Cl)ccc(CNC(=O)C(C)(C)C)c3Cl)n(C)c2cc1OCC(F)F` [Example 56], the 50% inhibitory concentration (IC50) at mPGES-1 [1] (setting [3]) worked out at 4 nM; on mPGES-1 [2] (setting [4]), 3 nM.

Turning to `Cn1c(Nc2c(Cl)ccc(CNC(=O)C(C)(C)C)c2Cl)nc2cc(C(=O)NC3CCC3)c(OCC(F)F)cc21` [Example 32], the figures for the IC50 at mPGES-1 [1] (setting [3]) and at mPGES-1 [2] (setting [4]) were 3 nM and 1 nM, respectively.

With `Cn1c(Nc2c(Cl)ccc(CNC(=O)C(C)(C)C)c2Cl)nc2cc(C(=O)Nc3ccncc3Cl)c(OCC(F)F)cc21` [Example 65], the IC50 came out at 4 nM on mPGES-1 [1] (setting [3]) and 6 nM at mPGES-1 [2] (setting [4]).

As to `Cn1c(Nc2c(Cl)ccc(CNC(=O)C(C)(C)C)c2Cl)nc2cc(C(=O)NCC3CCCCC3)c(OCC(F)F)cc21` [Example 52], the values for the IC50 on mPGES-1 [1] (setting [3]) and at mPGES-1 [2] (setting [4]) were 4 nM and less than 1 nM, respectively.
